Measurements published in patent US12168008B2, “Oxabicycloheptanes for modulation of immune response” (LIXTE BIOTECHNOLOGY, INC., priority 2016, dated 2024).
Where two headings read alike, the source gives them in different places.

What was measured:
clinical = format: in vivo, human; conditions: in vivo; for half-life: 2.33 mg/m2, T1/2
Description: The main objective was to determine the safety, tolerability, and maximum tolerated dose of LB-100 given intravenously daily for three consecutive days every 3 weeks. The secondary objectives were to document any evidence of potential anti-tumor activity and obtain pharmacokinetic data on LB-100 and a metabolite, endothall, in patients receiving LB-100 at the MTD (Quang et al., 2016).
The plasma concentrations of LB-100 and endothall were measured (Quang et al., 2016) prior to and over 4 hours after completion of the 2-hour infusion at the MTD of 2.33 mg/m2 of LB-100 on day 1 in one patient and on day 1 and 3 in two patients. […] Plasma concentrations of endothall were low throughout the infusion, being below the lower limit of detection (5 ng/mL) in one patient.

[1] = tested on: Primary human T cells and Jurkat T cells; assay: In vitro studies PP2A and CTLA4 (Example 2); format: cell-based
Description: Primary human T cells and Jurkat T cells are treated with LB-100 and T-cell activation levels measured. LB-100 increases activation of the T cells.
Primary human T cells and Jurkat T cells are treated with LB-100 and PP2A:CTLA-4 interaction is assessed. LB-100 decreases the interaction of PP2A and CTLA-4.
Primary human T cells and Jurkat T cells are treated with LB-100 and levels of PP2A phosphorylation are measured. LB-100 increases phosphorylation in the T cells.

progressive solid tumors = assay: Phase I study: clinical activity (RECIST 1.1); format: in vivo, human
Description: (§1) Response to treatment was assessed using RECIST version 1.1. All patients with measurable disease, who completed 2 cycles of LB-100 and had at least 1 post-baseline tumor assessment, were evaluable for efficacy. Patients receiving any LB-100 were evaluable for safety. The severity of adverse events and laboratory abnormalities is reported according to NCI-CTCAE version 4.0 and coded using Medical Dictionary for Regulatory Activities.

[2] = format: in vivo, human; conditions: for dose limiting toxicity (reversible increases in serum creatinine or calculated serum creatinine clearance): 3.1 mg/m2
Description: Experimental Design: LB-100 was administered intravenously daily for 3 days in 21-day cycles in a 3+3 dose-escalation design. The primary goal was to determine the maximum tolerated dose and recommended phase 2 dose (ClinicalTrials.gov: NCT01837667).
Eligible patients were aged 18 years or older with proven progressive solid tumors who had failed standard treatments. Patients had to have a life expectancy of at least 12 weeks, an ECOG performance status of 0 or 1, and be able to give informed consent. […] They must not have any other uncontrolled systemic disease. Women of childbearing potential had to have a negative serum or urine pregnancy test result.
An open-label, dose-escalation, phase I study was performed to assess the safety, tolerability, and activity of LB-100 administered for 3 consecutive days every 3 weeks. Pharmacokinetic studies were planned at the maximum tolerable dose (MTD). The starting dose, 0.25 mg/m^2, 1/15th of the highest non-severely toxic dose in dogs, and plan of dose escalation was specified by the FDA. The study was approved by the human investigations committee at each study center and is registered at clinicaltrials.gov: NCT01837667.
LB-100 was supplied as a single use solution. Initially, LB-100 was administered in 50 mL of saline over 15 minutes. […] Dose escalation was prohibited within any cohort. Patients were eligible to receive up to 6 cycles of study therapy, unless unacceptable toxicity, disease progression, or inter-current illness required discontinuation. More than 6 cycles were allowed in the absence of progression and toxicity. Because of cardiac and renal toxicity at high doses in animal toxicology studies, patients had extensive monitoring including ECG, MUGA or echocardiogram, cardiac troponins, and BNP prior to every cycle. Blood chemistries, urinalysis, hematologic profile and vital signs were monitored prior to and on day 1, 3, 8, 15, and 22 of each cycle. Laboratory parameters were tabulated by maximum NCI-CTCAE (Version 4.0) severity grade. A safety review committee assessed all clinical data every 2 weeks and approved dose escalation between cohorts.
Doses of LB-100 were escalated in groups of three patients. […] When a potential DLT occurred, three new patients were entered at that dose. If another DLT occurred, three additional patients were treated at the previous non-DLT dose to determine the safety of that level for phase 2 trials.
as §1

[3] = of 20 patients with measurable disease

CN1CCN(C(=O)C2C(C(=O)O)[C@H]3CC[C@@H]2O3)CC1 (some centres unmarked) [LB-100]
half-life (clinical; female, human): 81 min | pharmacokinetics of LB-100, in words (clinical): low clearance, low volume of distribution, and a short half-life | T1/2 (clinical; male, human, 2.33 mg/m2): 57 min | half-life (clinical; male, human): 66 min | PP2A:CTLA-4 interaction [1]: decreases | T-cell activation levels [1]: increases | levels of PP2A phosphorylation in the T cells [1]: increases | duration of partial response or stability of disease (progressive solid tumors; atypical carcinoid of the lung, 0.83 mg/m^2): 5 cycles | duration of partial response or stability of disease (progressive solid tumors; breast cancer, 1.25 mg/m^2): 4 cycles | duration of partial response or stability of disease (progressive solid tumors; chondrosarcoma, 3.1 mg/m^2): 8 cycles | duration of partial response or stability of disease (progressive solid tumors; fibrosarcoma, started at 3.1 mg/m^2, two dose reductions): 12 cycles | duration of partial response or stability of disease (progressive solid tumors; malignant thymoma, 1.75 mg/m^2): 8 cycles | no progression of indicator lesion(s) (progressive solid tumors; [3]): 16 patients | significant increases in the size of indicator lesion(s) by RECIST criteria (progressive solid tumors; [3]): 3 patients | duration of partial response or stability of disease (progressive solid tumors; ovarian cancer, 1.75 mg/m^2): 6 cycles | duration of partial response or stability of disease (progressive solid tumors; pancreatic cancer, 0.83 mg/m^2): 15 cycles | partial response (progressive solid tumors; pancreatic carcinoma, noted after 10 cycles, maintained 5 more cycles, of 20 patients): One and one | duration of partial response or stability of disease (progressive solid tumors; testicular cancer, 1.25 mg/m^2): 5 cycles | DLT during the first 6 dose levels ([2]; 0.25-2.33 mg/m^2): no DLT | HEADACHE, patients n (%) ([2]; Grade 1-2): 3 (10.3%) | HEADACHE, patients n (%) ([2]; Grade 3): 0 | HEADACHE, patients n (%) ([2]; Grade 4): 0 | ABDOMINAL DISCOMFORT, patients n (%) ([2]; Grade 5): 0 | ABDOMINAL DISTENSION, patients n (%) ([2]; Grade 5): 0 | ACCELERATED HYPERTENSION, patients n (%) ([2]; Grade 5): 0 | ALANINE AMINOTRANSFERASE INCREASED, patients n (%) ([2]; Grade 5): 0 | ANAEMIA, patients n (%) ([2]; Grade 5): 0 | ARTHRALGIA, patients n (%) ([2]; Grade 5): 0 | BLOOD ALKALINE PHOSPHATASE INCREASED, patients n (%) ([2]; Grade 5): 0 | BLOOD UREA INCREASED, patients n (%) ([2]; Grade 5): 0 | CANDIDIASIS, patients n (%) ([2]; Grade 5): 0 | CHEST PAIN, patients n (%) ([2]; Grade 5): 0 | CHILLS, patients n (%) ([2]; Grade 5): 0 | CONSTIPATION, patients n (%) ([2]; Grade 5): 0 | DECREASED APPETITE, patients n (%) ([2]; Grade 5): 0 | DERMATITIS ACNEIFORM, patients n (%) ([2]; Grade 5): 0 | DIARRHOEA, patients n (%) ([2]; Grade 5): 0 | DIZZINESS, patients n (%) ([2]; Grade 5): 0 | EJECTION FRACTION DECREASED, patients n (%) ([2]; Grade 5): 0 | ELECTROCARDIOGRAM QT PROLONGED, patients n (%) ([2]; Grade 5): 0 | GAIT DISTURBANCE, patients n (%) ([2]; Grade 5): 0 | GASTROINTESTINAL DISORDER, patients n (%) ([2]; Grade 5): 0 | GENERALISED OEDEMA, patients n (%) ([2]; Grade 5): 0 | GINGIVAL PAIN, patients n (%) ([2]; Grade 5): 0 | HEADACHE, patients n (%) ([2]; Grade 5): 0 | HYPERCALCAEMIA, patients n (%) ([2]; Grade 5): 0 | HYPERKALAEMIA, patients n (%) ([2]; Grade 5): 0 | HYPERNATRAEMIA, patients n (%) ([2]; Grade 5): 0 | HYPERTENSION, patients n (%) ([2]; Grade 5): 0 | HYPOAESTHESIA, patients n (%) ([2]; Grade 5): 0 | HYPOALBUMINAEMLA, patients n (%) ([2]; Grade 5): 0 | HYPOKINESIA, patients n (%) ([2]; Grade 5): 0 | HYPOTENSION, patients n (%) ([2]; Grade 5): 0 | HYPOXIA, patients n (%) ([2]; Grade 5): 0 | INSOMNIA, patients n (%) ([2]; Grade 5): 0 | MUCOSAL INFLAMMATION, patients n (%) ([2]; Grade 5): 0 | MUSCLE TWITCHING, patients n (%) ([2]; Grade 5): 0 | MUSCULAR WEAKNESS, patients n (%) ([2]; Grade 5): 0 | NAUSEA, patients n (%) ([2]; Grade 5): 0 | NEUROPATHY PERIPHERAL, patients n (%) ([2]; Grade 5): 0 | NEUTROPENIA, patients n (%) ([2]; Grade 5): 0 | OEDEMA PERIPHERAL, patients n (%) ([2]; Grade 5): 0 | OEDEMA, patients n (%) ([2]; Grade 5): 0 | PAIN OF SKIN, patients n (%) ([2]; Grade 5): 0 | PERIPHERAL COLDNESS, patients n (%) ([2]; Grade 5): 0 | PERIPHERAL SENSORY NEUROPATHY, patients n (%) ([2]; Grade 5): 0 | PLATELET COUNT DECREASED, patients n (%) ([2]; Grade 5): 0 | PLEURAL EFFUSION, patients n (%) ([2]; Grade 5): 0 | PROTEINURIA, patients n (%) ([2]; Grade 5): 0 | PYREXIA, patients n (%) ([2]; Grade 5): 0 | SINUS TACHYCARDIA, patients n (%) ([2]; Grade 5): 0 | recommended phase 2 dose ([2]; daily for 3 days every 3 weeks, i.v.): 2.33 mg/m2 | Probable or possible study drug related Grade 3 adverse events ([2]; human, in vivo): 6 (20.7%) patients (%) | dose limiting toxicity (reversible increases in serum creatinine or calculated serum creatinine clearance) ([2]; human, in vivo): 2/4 | symptomatic toxicity ([2]; in vivo): no symptomatic toxicity other than reversible mild to moderate fatigue | toxicities suggestive of autoimmune activity ([2]; in vivo): no patient experienced toxicities suggestive of autoimmune activity | dose limiting toxicity (reversible increases in serum creatinine or calculated serum creatinine clearance) ([2]; in vivo): Two
